# Bridge positions count the residues as written; N and C are the ends. Peptide text beside a SMILES is read from it. * marks the point of attachment. FITC = O=C1OC2(c3ccc(O)cc3Oc3cc(O)ccc32)c2ccc(NC(=S)*)cc21; Ahx = NCCCCCC(=O)O
# System: TE-13 cells co-cultured with T cells
# Assay: Lactate dehydrogenase (LDH) release assay, T cell cytotoxicity
# Assay type: cell-based, human
# Settings: TE-13 and T cells at 16:1; FITC-YT-16 1, 2, 4, 8 and 16 µM; overnight, 37 °C; A490; triplicate wells
# From the text: The experiment in Figure 10 mainly evaluated the activation status of CD4^+ T cells by detection of IL-2 and INF-γ levels in the culture supernatant. The test in Figure 11 mainly evaluated the enhanced cytotoxicity by CD8^+ T cells by detection of lactate dehydrogenase (LDH) release in the culture supernatant. Activated CD8 T cells can recognize tumor cells and kill tumor cells by means of degranulation and Fas/FasL recognition. After the tumor cells were damaged, a cytoplasmic enzyme with name lactate dehydrogenase (LDH) is released from damaged cells into the supernatant and by measuring the levels of LDH, we can evaluate the cytotoxic effect of CD8 T cells. […]
# Effect of FITC-YT-16 peptide on T cell cytotoxicity was detected by measuring the release of a cytoplasmic enzyme, lactate dehydrogenase (LDH), from damaged cells into the supernatant by using a colorimetric assay according to cytotoxicity detection kit (Cayman Chemical, Ann Arbor, MI, USA). […] The supernatant was transferred to a new 96-well assay plate and the LDH reaction solution was added to each well and incubated for 30 min at 37 °C before the absorbance was read at 490 nm. […] Triplicate wells were averaged and the percentage of specific lysis was calculated by the following equation: % Cytotoxicity=[Experimental value A490−Spontaneous release A490/Maximum release A490−Spontaneous release A490]∗100
smiles,measurement,value
CC[C@H](C)[C@@H]1NC(=O)[C@H](CCSC)NC(=O)[C@@H](NC(=O)[C@H](CCCNC(=N)N)NC(=O)[C@H](Cc2ccc(O)cc2)NC(=O)CCCCCNC(=S)Nc2ccc3c(c2)C(=O)OC32c3ccc(O)cc3Oc3cc(O)ccc32)CSSC[C@@H](C(=O)N[C@H](C(=O)N[C@H](C(=O)O)[C@@H](C)O)[C@@H](C)CC)NC(=O)[C@H](CCCCN)NC(=O)[C@H](Cc2ccc(O)cc2)NC(=O)[C@H](CC(=O)O)NC(=O)[C@H](C)NC(=O)CNC(=O)CNC(=O)[C@H](Cc2ccc(O)cc2)NC(=O)[C@H](CO)NC1=O [FITC-YT-16] ({FITC-Ahx}-YRCMISYGGADYKCIT-OH; disulfide 3-14),"T cell cytotoxicity, concentration dependence",dose-dependently increased
